Measurements taken from patent publication US20230167088A1, “1-PYRAZINYLPYRAZOLYL-3-OXYALKYL ACIDS AND THEIR DERIVATIVES, AND THEIR USE FOR CONTROL OF UNDESIRED PLANT GROWTH” (BAYER AKTIENGESELLSCHAFT, priority 2020, published 2023).

Tests used:
ECHCG = test: Herbicidal pre-emergence action 2b (doubly sown, 1280 g/ha); assay type: in vivo, Echinochloa crus-galli; conditions: doubly sown pots, dosage 1280 g/ha, visual scoring after about 3 weeks
Excerpt: (§1) [table] b) Seeds of mono- and dicotyledonous weed plants are placed in plastic pots in sandy loam soil (doubly sown with one species each of mono- or dicotyledonous weed plants per pot) and covered with soil. The compounds of the invention, formulated in the form of wettable powders (WP) or as emulsion concentrates (EC), are then applied onto the surface of the covering soil as aqueous suspension or emulsion with addition of 0.5% additive at a water application rate equivalent to 600 litres per hectare. After the treatment, the pots are placed in a greenhouse and kept under good growth conditions for the trial plants. After about 3 weeks, the effect of the preparations is scored visually in comparison with untreated controls as percentages. For example, 100% activity=the plants have died, 0% activity=like control plants. Tables B16 to B21 below show the effects of selected compounds of the general formula (I) according to Tables 1 and 2 on various harmful plants and at an application rate corresponding to 1280 g/ha, which were obtained by the experimental procedure mentioned above.

AMARE [1] = test: as above; assay type: in vivo, Amaranthus retroflexus; conditions: doubly sown pots, dosage 1280 g/ha, visual scoring after about 3 weeks
Excerpt: as §1

VERPE [2] = test: Herbicidal post-emergence action 1a (greenhouse pots, visual rating); assay type: in vivo, Veronica persica; conditions: dosage 80 g/ha, visual rating about 3 weeks after treatment
Procedure: (§2) [table] a) Seeds of monocotyledonous and dicotyledonous weeds and crop plants are placed in sandy loam in plastic or organic plant pots, covered with soil and cultivated in a greenhouse under controlled growth conditions. 2 to 3 weeks after sowing, the test plants are treated at the one-leaf stage. The compounds of the invention, formulated in the form of wettable powders (WP) or as emulsion concentrates (EC), are then sprayed onto the green parts of the plants as aqueous suspension or emulsion with addition of 0.5% additive at a water application rate of 600 1/ha (converted). After the test plants have been kept in the greenhouse under optimum growth conditions for about 3 weeks, the activity of the preparations is rated visually in comparison to untreated controls. For example, 100% activity=the plants have died, 0% activity=like control plants. Tables A1 to A15 below show the effects of selected compounds of the general formula (I) according to Tables 1 and 2 on various harmful plants and an application rate corresponding to 320 g/ha and/or 80 g/ha, which were obtained by the experimental procedure mentioned above.

AMARE [3] = test: as above; assay type: in vivo, Amaranthus retroflexus; conditions: visual rating about 3 weeks after treatment
Procedure: as §2

POLCO [4] = test: as above; assay type: in vivo, Polygonum convolvulus; conditions: visual rating about 3 weeks after treatment
Procedure: as §2

ABUTH = test: as above; assay type: in vivo, Abutilon theophrasti; conditions: dosage 80 g/ha, visual rating about 3 weeks after treatment
Procedure: as §2

VERPE [5] = test: Herbicidal pre-emergence action 2a (greenhouse pots, visual scoring); assay type: in vivo, Veronica persica; conditions: dosage 320 g/ha, visual scoring after about 3 weeks vs untreated controls
Excerpt: (§3) [table] a) Seeds of monocotyledonous and dicotyledonous weed plants and crop plants are placed in plastic or organic plant pots and covered with soil. The compounds of the invention, formulated in the form of wettable powders (WP) or as emulsion concentrates (EC), are then applied onto the surface of the covering soil as aqueous suspension or emulsion with addition of 0.5% additive at a water application rate of 600 1/ha (converted). After the treatment, the pots are placed in a greenhouse and kept under good growth conditions for the trial plants. After about 3 weeks, the effect of the preparations is scored visually in comparison with untreated controls as percentages. For example, 100% activity=the plants have died, 0% activity=like control plants. Tables B1 to B15 below show the effects of selected compounds of the general formula (I) according to Tables 1 and 2 on various harmful plants and an application rate corresponding to 320 g/ha and/or 80 g/ha, which were obtained by the experimental procedure mentioned above.

AMARE [6] = test: as above; assay type: in vivo, Amaranthus retroflexus; conditions: dosage 320 g/ha, visual scoring after about 3 weeks vs untreated controls
Excerpt: as §3

ALOMY [7] = test: as above; assay type: in vivo, Alopecurus myosuroides; conditions: dosage 320 g/ha, visual scoring after about 3 weeks
Excerpt: as §3

LOLRI = test: as above; assay type: in vivo, Lolium rigidum; conditions: dosage 320 g/ha, visual scoring after about 3 weeks vs untreated controls
Excerpt: as §3

POLCO [8] = test: as above; assay type: in vivo, Polygonum convolvulus; conditions: dosage 320 g/ha, visual scoring after about 3 weeks vs untreated controls
Excerpt: as §3

ALOMY [9] = test: Herbicidal post-emergence action 1a (greenhouse pots, visual rating); assay type: in vivo, Alopecurus myosuroides; conditions: Dosage 80 g/ha; rated visually about 3 weeks after treatment; 100% = plants have died, 0% = like control plants
Procedure: as §2

AVEFA = test: as above; assay type: in vivo, Avena fatua; conditions: Dosage 80 g/ha; rated visually about 3 weeks after treatment; 100% = plants have died, 0% = like control plants
Procedure: as §2

PHBPU = test: as above; assay type: in vivo, Pharbitis purpurea; conditions: dosage 80 g/ha, visual rating about 3 weeks after treatment
Procedure: as §2

COC(=O)COc1nn(-c2cnccn2)c(-c2ccc(F)c(F)c2)c1C#N [Example I-23]
Pre-emergence action at 1280 g/ha against ECHCG in % (ECHCG): 100% | Pre-emergence action at 1280 g/ha against AMARE in % (AMARE [1]): 100%

CCOC(=O)CCNC(=O)COc1nn(-c2cnccn2)c(-c2ccc(F)nc2)c1Br [II-09]
Post-emergence action against VERPE in % (VERPE [2]): 90% | Post-emergence action against AMARE in % (AMARE [3]; dosage 80 g/ha): 90% | Post-emergence action against POLCO in % (POLCO [4]; dosage 80 g/ha): 80% | Post-emergence action against ABUTH in % (ABUTH): 90%

COC(=O)[C@@H](C)Oc1nn(-c2nccnc2F)c(-c2ccc(F)nc2)c1Br [Example I-80]
Pre-emergence action against VERPE in % (VERPE [5]): 80% | Post-emergence action against AMARE in % (AMARE [3]; dosage 80 g/ha): 80% | Post-emergence action against AMARE in % (AMARE [3]; dosage 320 g/ha): 80% | Pre-emergence action against AMARE in % (AMARE [6]): 100% | Pre-emergence action against ALOMY in % (ALOMY [7]): 100% | Pre-emergence action against LOLRI in % (LOLRI): 80% | Post-emergence action against POLCO in % (POLCO [4]; dosage 320 g/ha): 80%

CC(Oc1nn(-c2cnccn2)c(-c2ccc(F)nc2)c1C1CC1)C(=O)O (centres unmarked) [Example I-86]
Pre-emergence action against POLCO in % (POLCO [8]): 80% | Post-emergence action against ALOMY in % (ALOMY [9]): 90% | Pre-emergence action against AMARE in % (AMARE [6]): 80% | Post-emergence action against AVEFA in % (AVEFA): 90% | Pre-emergence action against ALOMY in % (ALOMY [7]): 100% | Pre-emergence action against LOLRI in % (LOLRI): 100%

COC(=O)[C@@H](C)Oc1nn(-c2cnccn2)c(-c2ccnnc2)c1C#N [Example I-32]
Pre-emergence action against VERPE in % (VERPE [5]): 90%

COC(=O)CCNC(=O)[C@@H](C)Oc1nn(-c2cnccn2)c(-c2ccc(F)nc2)c1Br [II-02]
Pre-emergence action against ALOMY in % (ALOMY [7]): 80%

O=C(COc1nn(-c2cnccn2)c(-c2ccc(F)nc2)c1Br)NCC1CC1 [II-10]
Post-emergence action against PHBPU in % (PHBPU): 80% | Post-emergence action against AMARE in % (AMARE [3]; dosage 80 g/ha): 80%

CS(=O)(=O)NC(=O)COc1nn(-c2cnccn2)c(-c2ccc(F)nc2)c1Br [II-14]
Pre-emergence action against AMARE in % (AMARE [6]): 80%

COC(=O)CNC(=O)COc1nn(-c2cnccn2)c(-c2ccc(F)nc2)c1Br [II-08]
Post-emergence action against AMARE in % (AMARE [3]; dosage 80 g/ha): 80% | Pre-emergence action against AMARE in % (AMARE [6]): 90%
